# From patent US11325905B2, “Imidopiperidine compounds as inhibitors of human polynucleotide kinase phosphatase” (THE GOVERNORS OF THE UNIVERSITY OF ALBERTA, priority 2017, dated 2022)
# “And” between values parts separate entries of the source, which are not always exact repeats. Equal values may be shown once. Read-outs that look alike come from different tables or passages of the source.
# Legend:
# PNKP [1] = biological target: T1, PNKP (Homo sapiens (Human), UniProt Q96T60); settings: intrinsic (tryptophan) fluorescence quenching titration, earlier publication; read-out: dissociation constant (Kd); cited from earlier work
# PNKP [2] = biological target: T1, PNKP; experiment: Binding affinity (Kd) by steady-state fluorescence spectroscopy, protein tryptophan fluorescence quenching
# Method: (§1) We chose to first rate and compare the analogues using a single-point measurement at 20 μM concentration. […] Only the top-rated analogues were further evaluated with an IC50 and a dissociation constant (Kd) determination.
# Freschauf, G. K., Mani, R. S., Mereniuk, T. R., Fanta, M., Virgen, C. A., Dianov, G. L., Grassot, J. M., Hall, D. G., and Weinfeld, M. Mechanism of action of an imido-piperidine inhibitor of human polynucleotide kinase/phosphatase.
# [3] = test system: cells in which PNKP expression was down-regulated by shRNA; settings: cited from earlier work
# murine PNKP = murine PNKP (Mus musculus (Mouse), UniProt Q9JLV6); settings: compared with human PNKP; cited from earlier work
# PNKP [4] = biological target: T1, PNKP; experiment: Universal molecular beacon (U-MB) fluorescence assay of PNKP phosphatase activity, IC50; type: biochemical
# Method: as §1
# myeloid leukemia cells = settings: cited from earlier work
# [5] = test system: human A549 lung carcinoma cells; settings: non-toxic doses; cited from earlier work
# [6] = test system: radioresistant prostate cancer cells; settings: cited from earlier work
# [7] = test system: MDA-MB-231 breast cancer cells; settings: non-toxic doses; cited from earlier work
# [8] = test system: limited panel of phosphatase enzymes; settings: cited from earlier work
# [9] = concentrations of 5-10 μM; cited from earlier work
# HCT116 PTEN−/− cells = experiment: Clonogenic survival assay, synthetic lethality; type: cell-based, human
# Method: (§2) Cells, seeded in 60-mm dishes 24 hours in advance, were treated with PNKP inhibitors for 9-14 consecutive days at nontoxic concentrations. Colonies were then stained with a crystal violet (Sigma, Oakville, ON, CA) stain containing 25% methanol for 30 min, after which the plates were washed in warm water and left to dry overnight. Colonies consisting of 50 cells or more were counted using an automated colony counter (Oxford Optronix, Abingdon, UK).
# (§3) To investigate whether the new encapsulated PNKP 3′-phosphatase inhibitors could induce a synthetic lethal response in PTEN-deficient cells, we performed clonogenic survival assays with both HCT116 PTEN+/+ and HCT116 PTEN−/− cells. […] However, the disruption of PNKP (chemically by inhibitors) or PTEN (genetically) individually was not lethal. These findings confirm our previous observation that a synthetic lethal relationship exists between PTEN and PNKP.
# HCT116 cells [10] = experiment: Clonogenic survival assay, radio/chemosensitization; type: cell-based, human
# Method: (§4) Cells, seeded in 60-mm dishes 24 hours in advance, were treated with PNKP inhibitors for 9-14 consecutive days at nontoxic concentrations. […] Colonies consisting of 50 cells or more were counted using an automated colony counter (Oxford Optronix, Abingdon, UK).
# HCT116 PTEN+/+ cells = experiment: Clonogenic survival assay, PTEN wild-type control cells; type: cell-based; settings: encapsulated, 9-14 days
# Method: as §2, §3
# Solubility = type: physicochemical
# HCT116 cells [11] = experiment: MTS cell proliferation assay; type: cell-based, human; settings: for usable concentration in clonogenic survival assays (not affecting cell growth): 72 h MTS
# Method: Free inhibitor was dissolved in DMSO in a way to keep the final concentration of DMSO<1%. After 72 h, 11 μL of the pre-mixed optimized dye solution (tetrazolium dye) was added to each well and cells were incubated for 4 more hours at 37° C. The absorbance recorded at 490 nm on a FLUOstar Optima® plate reader (BMG Labtech Inc., Durham, N.C.) was used as a representation of the relative number of metabolically active cells in the culture.
# [12] = test system: HCT116 wild type (wt) and PTEN knockout colorectal cells xenograft tumours; experiment: Subcutaneous xenograft tumour response; type: in vivo; settings: NIHIII mice, intravenous, three times 2 days apart, free or encapsulated
# Method: In FIG. 32, we have injected 500,000 HCT116 colorectal cancer cells subcutaneously in the right flank of NIHIII mice. […] Tumour volume was then calculated from the measurement of tumour dimensions and used to plot change in tumour volume over time.
# [13] = In vitro release of PNKP inhibitors by dialysis method; type: physicochemical
# Method: The in vitro release of encapsulated PNKP inhibitors was studied using a dialysis method. Each dialysis bag (Spectrapor dialysis tubing, MWCO 3.5 kDa, Spectrum Laboratories, Rancho Dominguez, Calif.), containing 2 mL of the micellar formulation or free drug dissolved in acetone, was placed into 300 mL of distilled water maintained at 37° C. in a shaking water bath (65 rpm, Julabo SW 22 shaking water bath, Seelbach, Germany). At selected time intervals, aliquots of 200 μL from the inside of the dialysis bag were collected. The amount of PNKP inhibitor was analyzed using a Varian Prostar 210 HPLC system. Reversed phase chromatography was carried out with a Microsorb-MV 5 μm C18-100 Å column (4.6 mm×250 mm) with 20 μL of sample injected and eluted under isocratic conditions with a solution of 0.1% trifluroacetic acid/acetonitrile (1:1 v/v) at a flow rate of 1.0 mL/min at room temperature.
# [14] = test system: HCT116 PNKP-knock out cells; experiment: Clonogenic survival assay, radio/chemosensitization in PNKP knock-out cells; type: cell-based, human; settings: free or encapsulated
# Method: as §4
# EGFR = EGFR (Homo sapiens (Human), UniProt P00533); settings: read-out: dissociation constant; cited from earlier work
# Sequence of murine PNKP (Q9JLV6 whole entry): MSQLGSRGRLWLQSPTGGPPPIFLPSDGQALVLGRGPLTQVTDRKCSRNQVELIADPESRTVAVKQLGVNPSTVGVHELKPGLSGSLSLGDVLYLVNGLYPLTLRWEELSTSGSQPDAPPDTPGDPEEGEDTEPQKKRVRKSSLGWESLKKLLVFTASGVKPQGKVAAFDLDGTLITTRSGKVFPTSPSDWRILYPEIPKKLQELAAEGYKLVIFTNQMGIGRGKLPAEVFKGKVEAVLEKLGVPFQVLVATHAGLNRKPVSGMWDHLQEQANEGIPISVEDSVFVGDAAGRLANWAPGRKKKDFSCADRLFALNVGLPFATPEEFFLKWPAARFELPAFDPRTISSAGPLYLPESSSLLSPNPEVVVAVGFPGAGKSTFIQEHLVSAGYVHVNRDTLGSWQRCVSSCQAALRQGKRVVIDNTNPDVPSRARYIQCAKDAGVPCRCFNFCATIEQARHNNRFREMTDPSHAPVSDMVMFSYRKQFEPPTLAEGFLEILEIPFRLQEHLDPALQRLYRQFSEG
compound,measurement,setting,value
"CCCCCCCCCC[C@@H](O)[C@H]1C=CC2C(=O)N(c3ccccc3)C(=O)[C@H]2N1Nc1ccc([N+](=O)[O-])cc1 (stereo in doubt) [Compound A12B4C3, 2-(1-hydroxyundecyl)-1-(4-nitrophenylamino)-6-phenyl-6,7a-dihydro-1H-pyrrolo[3,4-b]pyridine-5,7(2H, 4aH)-dione]",Kd,PNKP [1],340 nM
same,Kd,PNKP [2],370 nM
same,sensitization of PNKP-down-regulated cells,[3],failed to sensitize
same,inhibition of murine PNKP,murine PNKP,only slightly reduced efficacy
same,IC50,PNKP [4],14000 nM
same,sensitization to Auger electron-emitting radioimmunoconjugate,myeloid leukemia cells,sensitizes
same,sensitization to γ-radiation and camptothecin,[5],able to sensitize
same,sensitization to irradiation by carbon ions,[6],sensitizes
same,sensitization to γ-radiation and camptothecin,[7],able to sensitize
same,specificity,[8],specificity for PNKP
same,cytotoxicity,[9],low cytotoxicity
CCCCCCCCCC[C@@H](O)[C@@H]1C=CC2C(=O)N(c3ccc(N4CCNCC4)cc3)C(=O)[C@H]2N1Nc1ccc([N+](=O)[O-])cc1 (some centres unmarked) [Compound A12B4C50],level at which encapsulated inhibitor induced synthetic lethality,HCT116 PTEN−/− cells,4 µM
same,level at which encapsulated inhibitor sensitized HCT116 cells to radiation and irinotecan,HCT116 cells [10],4 µM
same,toxicity to HCT116 PTEN+/+ cells,HCT116 PTEN+/+ cells,showed toxicity
same,water solubility,Solubility,low water solubility
same,usable concentration in clonogenic survival assays (not affecting cell growth),HCT116 cells [11],≤ 5 µM
same,concentrations at which cell growth was affected,"HCT116 cells [11]; free and encapsulated, 72 h",> 5 µM
O=C1C2C=C[C@H]([C@H](O)c3ccc(Br)cc3)N(Nc3ccc([N+](=O)[O-])cc3)[C@@H]2C(=O)N1c1ccccc1 (some centres unmarked) [Compound A44B4C3],solubility compared with A12B4C3,Solubility,more soluble
COc1ccccc1[C@@H](O)[C@H]1C=CC2C(=O)N(c3ccccc3)C(=O)[C@H]2N1Nc1ccc([N+](=O)[O-])cc1 (some centres unmarked) [Compound A83B4C3],solubility compared with A12B4C3,Solubility,more soluble
"COc1ccccc1C(O)C1C=CC2C(=O)N(Cc3cccc4ccccc34)C(=O)C2N1Nc1ccc([N+](=O)[O-])cc1 (centres unmarked) [Compound A83B4C63, 2-[hydroxy(2-methoxyphenyl)methyl]-6-(naphthalen-1-ylmethyl)-1-[(4-nitrophenyl)amino]2H,4aH,7aH-pyrrolo[3,4-b]pyridine-5,7-dione]",synthetic lethality in HCT116 PTEN−/− cells,HCT116 PTEN−/− cells; 9-14 days treatment,more specifically toxic to PTEN-deficient cells than A12B4C50
same,level at which encapsulated inhibitor induced synthetic lethality,HCT116 PTEN−/− cells,4 µM
same,"tumour volume response, PTEN positive versus PTEN negative tumour model",[12],not as effective in the PTEN positive tumour model as it is in the PTEN negative tumour model
same,drug released from the dialysis bag,"[13]; free drug, within 6 h, 37° C.",59.4%
same,drug released,"[13]; from PEO-b-PBCL micelles, within 6 h, 37° C.",30.6%
same,drug release,"[13]; from PEO-b-PCL formulations, within 24 h",84.2%
same,drug released,"[13]; from PEO-b-PCL micelles, within 6 h, 37° C.",66.5%
same,cumulative release,"[13]; from respective optimum micelles (PEO-b-PCCL for A12B4C50, PEO-b-PBCL for A83B4C63), within 24 h",48% and 48.2%
same,level at which encapsulated inhibitor sensitized HCT116 cells to radiation and irinotecan,HCT116 cells [10],6 µM
same,water solubility,Solubility,low water solubility
same,sensitization of HCT116 PNKP-knock out cells to radiation or irinotecan,[14],failed to further sensitize
same,usable concentration in clonogenic survival assays (not affecting cell growth),HCT116 cells [11],< 20 µM
YHWYGYTPQNVI [GE11],Kd,EGFR,~22 nM
